Experimental data as given in paper PMC11509018, “Evaluation of the Role of Tanshinone I in an In Vitro System of Charcot-Marie-Tooth Disease Type 2N” (International Journal of Molecular Sciences, 2024).

Molecular target: T1, AlaRS R329H binding to Nrp1 (Homo sapiens, UniProt P49588, R329H)
T1 construct: expressed in transfected cells
T1 sequence (P49588 1-968 R329H): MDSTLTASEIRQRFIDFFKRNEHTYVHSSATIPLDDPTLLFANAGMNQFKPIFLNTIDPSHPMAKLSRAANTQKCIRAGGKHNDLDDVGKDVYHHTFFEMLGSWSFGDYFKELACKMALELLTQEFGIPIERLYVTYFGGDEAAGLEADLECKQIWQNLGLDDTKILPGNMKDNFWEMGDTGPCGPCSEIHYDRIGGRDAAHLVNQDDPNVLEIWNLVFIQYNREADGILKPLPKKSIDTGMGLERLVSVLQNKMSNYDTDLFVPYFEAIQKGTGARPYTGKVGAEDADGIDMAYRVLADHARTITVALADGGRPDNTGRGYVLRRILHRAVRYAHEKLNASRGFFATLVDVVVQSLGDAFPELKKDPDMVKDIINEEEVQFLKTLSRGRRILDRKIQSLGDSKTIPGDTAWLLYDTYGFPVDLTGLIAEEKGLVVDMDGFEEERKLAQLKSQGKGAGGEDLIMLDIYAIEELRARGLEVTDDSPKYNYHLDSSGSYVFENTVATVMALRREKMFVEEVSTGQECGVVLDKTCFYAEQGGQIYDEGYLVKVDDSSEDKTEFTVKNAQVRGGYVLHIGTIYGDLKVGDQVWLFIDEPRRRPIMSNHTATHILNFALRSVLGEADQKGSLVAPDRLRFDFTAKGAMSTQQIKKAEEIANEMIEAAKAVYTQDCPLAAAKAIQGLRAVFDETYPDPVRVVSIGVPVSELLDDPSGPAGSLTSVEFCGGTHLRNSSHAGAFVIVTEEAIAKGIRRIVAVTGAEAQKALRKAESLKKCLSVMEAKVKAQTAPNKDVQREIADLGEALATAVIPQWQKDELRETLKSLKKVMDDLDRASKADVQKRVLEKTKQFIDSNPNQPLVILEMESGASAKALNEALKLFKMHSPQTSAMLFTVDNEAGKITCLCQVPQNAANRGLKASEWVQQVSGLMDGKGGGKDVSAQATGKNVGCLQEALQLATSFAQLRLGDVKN
Assay: Co-IP of HA-AlaRS mutant with Nrp1 in transfected cells
Assay type: cell-based
Conditions: 20 µM Tanshinone I for 24 h, ImageJ, average of three repeats

In the case of `Cc1coc2c1C(=O)C(=O)c1c-2ccc2c(C)cccc12` [Tanshinone I], the “Mean density band (R329H), relative quantification of AlaRS mutant immunoprecipitated” value was 0.50.
